In US20240398814A1, “KRAS INHIBITOR AND HDAC INHIBITOR COMBINATION FOR THE TREATMENT OF CANCER” (Northwestern University, priority 2023, published 2024):

Columns and labels:
H460 cells = assay: qRT-PCR of chemokine gene expression in H460 cells; assay type: cell-based, human; conditions: 1 uM entinostat 4 days, 5 uM BRD3308 4 days
Description: All cell lines were incubated at 37° C. and were maintained in an atmosphere containing 5% CO2. Cells were tested for Mycoplasma (Lonza) using manufacturer's conditions and were deemed negative. Cells were grown in Dulbecco's modified Eagles medium (DMEM) plus 10% fetal bovine serum (Gibco) and were continuously maintained under antibiotic selection for stable cell lines. Proliferation assays were performed by plating 2×10^3 cells per well of a 6-well plate, and cells were counted 5 days post-plating. Drug treatments were carried out using the following doses: entinostat 1 uM or 2 uM, RGFP966 10uM, TSA 0.5 uM, BRD3308 5 uM, trametinib 5 nM, 10 nM, and 25 nM, and MRTX1133 10 nM, 25 nM, and 50 nM, as indicated for the indicated treatment lengths. Media was changed and fresh drug added every 2 days.
mRNA was prepared using the Quick-RNA Miniprep kit (Zymo Research), including DNase treatment. cDNA was synthesized from 2 μg of RNA using SuperScript III (Life Technologies), and qPCR was carried out with diluted cDNA, appropriate primers, and SYBR Green PCR master mix (ThermoFisher Scientific) using a C1000 Thermal Cycler (BioRad). Relative mRNA levels were calculated using the delta Ct method, using Tbp as an internal control.

NF-kB/p65 protein = assay: Western blot of p65 nuclear localisation and K310 acetylation in KL LJE1 cells; assay type: cell-based, mouse
Description: Protein lysates in CST buffer (20 mM Tris pH 7.5, 150 mM NaCl, 1% Triton X-100, 50 mM NaF, 1 mM EDTA, 1 mM EGTA, 2.5 mM PyroPhosphate, 2 mM beta-glycerol-phosphate, 1 mM orthovanadate, 0.01 mM Calyculan A) with protease inhibitors were equilibrated for protein levels using a BCA protein assay kit (Pierce), resolved on 8% SDS-PAGE gels, and transferred to membrane. Membranes were blocked in milk, incubated o/n at 4C in diluted primary antibody, washed with TBS-T, incubated 1 hr in secondary antibody diluted in TBS-T plus milk, washed in TBS-T, and developed using SuperSignal ECL. Secondary antibodies: anti-rabbit (Millipore AP132P) and anti-mouse (Millipore AP124P). Nuclear fractions were isolated using a NE-PER nuclear and cytoplasmic extraction kit (Thermofisher) under manufacturers conditions.
p65-expressing DNA constructs RelA-Flag (22) (Addgene 20012) and GFP-RelA (21) (Addgene 23255) were transiently transfected into KL LJE1 cells using Lipofectamine 2000 (Thermo Fisher Scientific) according to the manufacturer's protocol. Cells were treated with drug as indicated 24 hours after transfection.

KL lung tumors = assay: 6-week in vivo entinostat and trametinib treatment, flow cytometry immune profiling; parameters: species or system mouse; conditions: 6 weeks; percentage of total CD45+ cells
Description: The 6-week duration study was carried out according to the same experimental design except for the following: To ensure an extended treatment duration, treatment was initiated after tumor burden was detected by BLI in >30% of mice in the study. Entinostat was administered at a dose of 10 mg/kg to assess systemic drug impact at a dose corresponding to potent tumor growth control. Because mice were gavaged twice daily for an extended duration, an additional drug holiday was built into the dosing schedule starting after 3 weeks of treatment; mice were administered drug using the following schedule: 4 days on, 1 day off, 1 day on, and 1 day off (imaging day).
Tumor digestion and cell isolation: Lungs were removed from the chest, washed with PBS, dried on paper towels and then tumor nodules were excised from adjacent tissue and both adjacent tissue and nodules were weighed. Nodules or adjacent tissue was minced into small pieces and suspended in digestion media consisting of RPMI 1640 with 2% FBS, 0.5 ug/mL of DNase I and 1 unit/mL collagenase Type I (Sigma-Aldrich Cat #0000137295) and placed in an incubator at 37° C. for 45 minutes, shaking once during digestion. […]

Compound: Nc1ccccc1NC(=O)c1ccc(CNC(=O)OCc2cccnc2)cc1 [entinostat]
- chemokine (SASP) gene expression (H460 cells): induced the expression of these genes
- acetylation of wildtype p65 at K310 (versus K310A mutant) (NF-kB/p65 protein; 5 hours, 1 uM entinostat or 5 uM BRD3308): induce acetylation of wildtype p65 at K310
- K310 acetylation on transfected p65 (NF-kB/p65 protein; Flag-p65 or GFP-p65, 6 hr, 2 uM entinostat): increased K310 acetylation on p65
- quantity of p65 protein in the nuclear fraction (NF-kB/p65 protein; Western blot, 6 hr, 2 uM entinostat, 10uM RGFP966, 0.5 uM TSA): increased the quantity of p65 protein in the nuclear fraction
- gMDSCs in lung tumors (KL lung tumors): No changes were observed
